The target of assay [1] is T1, human B1R receptor (CHO K1 cells stably transfected with the human B1R gene) (Homo sapiens, UniProt P46663).
T1 construct: expressed in transfected cells; host or cells: CHO K1 cells (Chinese hamster ovary), stably transfected
T1 sequence (P46663 1-353): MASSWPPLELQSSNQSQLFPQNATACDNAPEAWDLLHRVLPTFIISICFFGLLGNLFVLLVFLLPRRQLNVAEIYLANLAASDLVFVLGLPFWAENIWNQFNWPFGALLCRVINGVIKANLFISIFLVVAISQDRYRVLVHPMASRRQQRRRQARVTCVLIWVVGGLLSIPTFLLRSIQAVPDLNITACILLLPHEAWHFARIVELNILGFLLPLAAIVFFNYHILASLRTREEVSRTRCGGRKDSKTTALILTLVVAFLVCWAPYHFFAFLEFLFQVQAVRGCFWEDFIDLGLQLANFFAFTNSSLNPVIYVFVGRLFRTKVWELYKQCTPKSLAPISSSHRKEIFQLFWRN
Put plainly: Functional study on the bradykinin receptor 1 (B1R), Ca2+ fluorescence (Fluo-4) FLIPR/Novostar assay, hB1R cells. The format is cell-based. The method in brief:
(§1)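 Test compounds (10 μM) were added first and the Ca2+ rise was scored as % activation against Lys-Des-Arg9-bradykinin (≥50 nM, human) or Des-Arg9-bradykinin (≥1 μM, rat). After 6-20 min, the matching agonist was given at its EC80, and % inhibition relative to maximal achievable inhibition was calculated.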

Assay [2] addresses T2, B1R receptor of the rat (CHO K1 cells stably transfected with the B1R gene of the rat) (Rattus norvegicus, UniProt P97583).
T2 construct: expressed in transfected cells; host or cells: CHO K1 cells (Chinese hamster ovary), stably transfected
T2 sequence (P97583 1-337): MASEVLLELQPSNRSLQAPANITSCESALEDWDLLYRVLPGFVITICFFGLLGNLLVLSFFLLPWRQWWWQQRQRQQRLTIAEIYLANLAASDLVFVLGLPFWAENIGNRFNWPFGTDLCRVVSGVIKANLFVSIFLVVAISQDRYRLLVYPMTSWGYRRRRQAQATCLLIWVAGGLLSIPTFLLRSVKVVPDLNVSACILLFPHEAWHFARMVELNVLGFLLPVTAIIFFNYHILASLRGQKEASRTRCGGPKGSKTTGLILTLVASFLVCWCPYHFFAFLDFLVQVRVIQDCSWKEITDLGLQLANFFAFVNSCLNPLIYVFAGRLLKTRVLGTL
Put plainly: Functional study on the bradykinin receptor 1 (B1R), Ca2+ fluorescence (Fluo-4) FLIPR/Novostar assay, rB1R cells. The format is cell-based. Conditions: for inhibition at 10 µM: CHO-K1, 10 μM. The method in brief:
as §1

Setting [3] is: CHO-K1, read-out: % inhibition (human B1R) at 10 μM.
Setting [4] is: read-out: % inhibition (rat B1R) at 10 μM.
[5] abbreviates: CHO-K1, read-out: % Inhibition (h-B1R) at 10 μM.
Setting [6] is: read-out: % Inhibition (r-B1R) at 10 μM.

Read-outs that look alike come from different tables or passages of the source.

The term inhibition denotes the drop in the measured response relative to a control, in per cent.

On to `COc1cc(N2CCC(N(C)C(=O)c3ccc4c(c3)[C@H](NC(=O)c3ccccc3Cl)CC4)CC2)ccn1` [Example H-112, (3R)-3-[(2-Chloro-benzoyl)amino]-N-[1-(2-methoxy-pyridin-4-yl)-piperidin-4-yl]-N-methyl-2,3-dihydro-1H-indene-5-carboxylic acid amide], for which the inhibition at 10 µM in assay [1] (setting [3]) and in assay [2] (setting [4]) was 99% each time.

For the molecule `CN(C(=O)c1ccc2c(c1)C(NC(=O)c1c(Cl)cccc1C(F)(F)F)CCC2)C1CCN(c2ccncc2)CC1` (stereo not shown) [CC_H-11, 8-[[2-Chloro-6-(trifluoromethyl)-benzoyl]amino]-N-methyl-N-(1-pyridin-4-yl-piperidin-4-yl)-5,6,7,8-tetrahydro-naphthalene-2-carboxylic acid amide], the inhibition at 10 µM in assay [1] (setting [5]) is 99%; in assay [2] (setting [6]), 103%.

Turning to `CN(C(=O)c1ccc2c(c1)C(NC(=O)c1cc(F)ccc1Cl)CC2(C)C)C1CCN(c2ccncc2)CC1` (stereo not shown) [CC_H-21, 3-[(2-Chloro-5-fluoro-benzoyl)amino]-N,1,1-trimethyl-N-(1-pyridin-4-yl-piperidin-4-yl)-2,3-dihydro-indene-5-carboxylic acid amide], the inhibition at 10 µM in assay [1] (setting [5]) is 99%. The “% Inhibition (r-B1R) at 10 μM” value in assay [2] (10 μM) is 104%.

`CCN(C(=O)c1ccc(F)cc1Cl)[C@@H]1CCc2ccc(C(=O)N(C)C3CCN(c4cc(C)nc(C)n4)CC3)cc21` [Example H-167, (3R)-3-[(2-Chloro-4-fluoro-benzoyl)-ethyl-amino]-N-[1-(2,6-dimethyl-pyrimidin-4-yl)-piperidin-4-yl]-N-methyl-2,3-dihydro-1H-indene-5-carboxylic acid amide]: the figures for the inhibition at 10 µM in assay [1] (setting [3]) and in assay [2] (setting [4]) were 100% and 109%, respectively.

With `CN(C(=O)c1ccc2c(c1)[C@H](NC(=O)[C@@H]1CCCc3ccccc31)CC2)C1CCN(c2ccncc2)CC1` [Example H-70, N-[(1R)-6-[Methyl-(1-pyridin-4-yl-piperidin-4-yl)-carbamoyl]-2,3-dihydro-1H-inden-1-yl]-1,2,3,4-tetrahydro-naphthalene-1-carboxylic acid amide], the inhibition at 10 µM in assay [1] (setting [3]) stood at 100%; in assay [2] (setting [4]) it was 96%.

With `CN(C(=O)c1ccc2c(c1)CC[C@H]2N1Cc2cccc(Cl)c2C1=O)C1CCN(CCc2ccncc2)CC1` [Example H-43, (1R)-1-(4-Chloro-3-oxo-1,2-dihydro-isoindol-2-yl)-N-methyl-N-[1-(2-pyridin-4-yl-ethyl)-piperidin-4-yl]-2,3-dihydro-1H-Indene-5-carboxylic acid amide], the inhibition at 10 µM in assay [1] (setting [3]) amounted to 22%; in assay [2] (setting [4]), 51%.

On to `Cc1cc(N2CCC(N(C)C(=O)c3ccc4c(c3)[C@H](NC(=O)c3ccccc3Cl)CC4)CC2)nc(C(C)C)n1` [Example H-139, (3R)-3-[(2-Chloro-benzoyl)amino]-N-[1-(2-isopropyl-6-methyl-pyrimidin-4-yl)-piperidin-4-yl]-N-methyl-2,3-dihydro-1H-indene-5-carboxylic acid amide], for which the inhibition at 10 µM in assay [1] (setting [3]) amounted to 100%; in assay [2] (setting [4]), 97%.

For the molecule `CN(C(=O)c1ccc2c(c1)[C@H](NC(=O)c1c(F)cccc1Cl)CC2)C1CCN(c2ccncc2)CC1` [Example H-32, (3R)-3-[(2-Chloro-6-fluoro-benzoyl)amino]-N-methyl-N-(1-pyridin-4-yl-piperidin-4-yl)-2,3-dihydro-1H-indene-5-carboxylic acid amide], the inhibition at 10 µM in assay [1] (setting [3]) amounted to 100%; in assay [2] (setting [4]), 101%.

Take `Cc1cc(N2CCC(N(C)C(=O)c3ccc4c(c3)[C@H](NC(=O)c3ccccc3C(F)(F)F)CC4)CC2)nc(C)n1` [Example H-132, (3R)-N-[1-(2,6-Dimethyl-pyrimidin-4-yl)-piperidin-4-yl]-N-methyl-3-[[2-(trifluoromethyl)-benzoyl]amino]-2,3-dihydro-1H-indene-5-carboxylic acid amide]: the inhibition at 10 µM in assay [1] (setting [3]) and in assay [2] (setting [4]) was 99% in each case.

Turning to `COc1nc(C)cc(N2CCC(N(C)C(=O)c3ccc4c(c3)[C@H](NC(=O)c3ccccc3Cl)CC4)CC2)n1` [Example H-126, (3R)-3-[(2-Chloro-benzoyl)amino]-N-[1-(2-methoxy-6-methyl-pyrimidin-4-yl)-piperidin-4-yl]-N-methyl-2,3-dihydro-1H-indene-5-carboxylic acid amide], the inhibition at 10 µM was found to be 100% in assay [1] (setting [3]) and 104% in assay [2] (setting [4]).

For `CN(C(=O)c1ccc2c(c1)C(NC(=O)c1ccccc1Cl)CC2)C1CCN(c2ccncc2)CC1` (stereo not shown) [CC_H-24, 3-[(2-Chloro-benzoyl)amino]-N-methyl-N-(1-pyridin-4-yl-piperidin-4-yl)-2,3-dihydro-1H-indene-5-carboxylic acid amide], the inhibition at 10 µM in assay [1] (setting [5]) turned out to be 100%; in assay [2] (setting [6]), 105%.

For `CN(C(=O)c1ccc2c(c1)CC[C@H]2N1Cc2cccc(Cl)c2C1=O)C1CCN(Cc2ccnc(N3CCCC3)c2)CC1` [Example H-53, (1R)-1-(4-Chloro-3-oxo-1,2-dihydro-isoindol-2-yl)-N-methyl-N-[1-[(2-pyrrolidin-1-yl-pyridin-4-yl)-methyl]-piperidin-4-yl]-2,3-dihydro-1H-indene-5-carboxylic acid amide], the inhibition at 10 µM in assay [1] (setting [3]) was 56%; in assay [2] (setting [4]), 50%.

As for `CN(C(=O)c1ccc2c(c1)CCC2NC(=O)CCC1CCCC1)C1CCN(c2ccncc2)CC1` (stereo not shown) [CC_H-65, 1-(3-Cyclopentyl-propanoylamino)-N-methyl-N-(1-pyridin-4-yl-piperidin-4-yl)-2,3-dihydro-1H-indene-5-carboxylic acid amide], the inhibition at 10 µM in assay [1] (setting [5]) came out at 98%; in assay [2] (setting [6]) it was 48%.

As to `Cc1cc(CN2CCC(N(C)C(=O)c3ccc4c(c3)[C@H](NC(=O)c3ccccc3Cl)CC4)CC2)on1` [Example H-134, (3R)-3-[(2-Chloro-benzoyl)amino] N-methyl-N-[1-[(3-methyl-isoxazol-5-yl)-methyl]-piperidin-4-yl]-2,3-dihydro-1H-indene-5-carboxylic acid amide], the results for the inhibition at 10 µM in assay [1] (setting [3]) and in assay [2] (setting [4]) were 8% and 55%, respectively.

For the molecule `CN(C(=O)c1ccc2c(c1)C(NS(=O)(=O)c1c(Cl)cccc1C(F)(F)F)CCO2)C1CCN(c2ccncc2)CC1` (stereo not shown) [CC_H-47, 4-[[[2-Chloro-6-(trifluoromethyl)-phenyl]sulfonyl]amino]-N-methyl-N-(1-pyridin-4-yl-piperidin-4-yl)-3,4-dihydro-2H-chromene-6-carboxylic acid amide], the inhibition at 10 µM in assay [1] (setting [5]) was 99%; in assay [2] (setting [6]), 104%.

`CN(C(=O)c1ccc2c(c1)[C@H](NC(=O)c1cccnc1C(F)(F)F)CC2)C1CCN(c2ccncc2)CC1` [Example H-37, N-[(1R)-6-[Methyl-(1-pyridin-4-yl-piperidin-4-yl)-carbamoyl]-2,3-dihydro-1H-inden-1-yl]-2-(trifluoromethyl)-pyridine-3-carboxylic acid amide]: the inhibition at 10 µM turned out to be 100% in assay [1] (setting [3]) and 107% in assay [2] (setting [4]).

Consider `COc1ccc(N2CCC(N(C)C(=O)c3ccc4c(c3)[C@H](NC(=O)c3ccccc3Cl)CC4)CC2)cc1` [Example H-50, (3R)-3-[(2-Chloro-benzoyl)amino]-N-[1-(4-methoxyphenyl)-piperidin-4-yl]-N-methyl-2,3-dihydro-1H-indene-5-carboxylic acid amide], for which the values for the inhibition at 10 µM in assay [1] (setting [3]) and in assay [2] (setting [4]) were 23% and 86%, respectively.

`CN(C(=O)NC1CC(C)(C)c2ccc(C(=O)N(C)C3CCN(c4ccncc4)CC3)cc21)c1ccccc1Cl` (stereo not shown) [CC_H-15, 3-[[(2-Chlorophenyl)-methyl-carbamoyl]amino]-N,1,1-trimethyl-N-(1-pyridin-4-yl-piperidin-4-yl)-2,3-dihydro-indene-5-carboxylic acid amide]: the inhibition at 10 µM in assay [1] (setting [5]) is 99%; in assay [2] (setting [6]), 101%.

Consider `Cc1cc(N2CCC(N(C)C(=O)c3ccc4c(c3)[C@H](NC(=O)C3CCOCC3)CC4)CC2)nc(C)n1` [Example H-89, N-[(1R)-6-[[1-(2,6-Dimethyl-pyrimidin-4-yl)-piperidin-4-yl]-methyl-carbamoyl]-2,3-dihydro-1H-inden-1-yl]-tetrahydro-pyran-4-carboxylic acid amide], for which the inhibition at 10 µM was 74% in assay [1] (setting [3]) and 89% in assay [2] (setting [4]).

On to `CC(C)CC(=O)N(C)C1CCc2ccc(C(=O)N(C)C3CCN(c4ccncc4)CC3)cc21` (stereo not shown) [CC_H-28, N-Methyl-3-[methyl-(3-methyl-butanoyl)-amino]-N-(1-pyridin-4-yl-piperidin-4-yl)-2,3-dihydro-1H-indene-5-carboxylic acid amide], for which the figures for the inhibition at 10 µM in assay [1] (setting [5]) and in assay [2] (setting [6]) were 99% and 103%, respectively.

Values taken from patent US8680159B2, “Bradykinin 1 receptor modulating compounds” (Gruenenthal GmbH, priority 2010, dated 2014).
